Measured values reported in US20260193264A1, “BENZOYPARAZINE PYRAZINES AND THEIR USES” (FOGHORN THERAPEUTICS INC., priority 2022, published 2026).

Experiments:
[1] = target: T1, HiBit-BRG1 fusion protein in stable HeLa cell line expressing HiBit-BRG1 and LgBit (Homo sapiens, UniProt P51532); experiment: HiBiT-BRG1 cell-based degradation assay (Nano-Glo HiBiT, 24 h); conditions: HeLa HiBit-BRG1/LgBit cells; for DC50: read-out: BRMG1 HiBit Degradation IC50; for Dmax: top dose 30 μM, read-out: BRG1 HiBit Degradation Maximum (%)
T1 construct: expressed in transfected cells
Procedure, shortened: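 Stable HeLa line co-expressing HiBiT-BRG1 and LgBiT, compound-treated 24 h; luminescence read after Nano-Glo HiBiT lytic reagent. % degradation normalised between DMSO (high control) and 2 μM reference BRM/BRG1 degrader (low control).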

[2] = target: T2, HiBiT-BRM fusion protein in stable HeLa cell line (Homo sapiens, UniProt P51531); experiment: HiBiT-BRM cell-based degradation assay (Nano-Glo HiBiT Lytic Detection, 24 h); set-up: DC50: scale not given here; conditions: HeLa HiBiT-BRM cells; for DC50: read-out: BRM HiBit Degradation IC50; for BRM HiBit Degradation Maximum (%): top dose 30 μM
T2 construct: expressed in transfected cells
Procedure, shortened: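 Luminescence from HiBiT/LgBiT complementation after lysis reports remaining HiBiT-BRM in stable HeLa cells exposed to compound for 24 h. Dosing used 3-fold serial dilutions, 10 points, 30 μM top final concentration. DMSO and a 2 μM BRM/BRG1 degrader standard defined 0% and 100% degradation.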

T2 sequence (P51531 whole entry, the tested form may be a part): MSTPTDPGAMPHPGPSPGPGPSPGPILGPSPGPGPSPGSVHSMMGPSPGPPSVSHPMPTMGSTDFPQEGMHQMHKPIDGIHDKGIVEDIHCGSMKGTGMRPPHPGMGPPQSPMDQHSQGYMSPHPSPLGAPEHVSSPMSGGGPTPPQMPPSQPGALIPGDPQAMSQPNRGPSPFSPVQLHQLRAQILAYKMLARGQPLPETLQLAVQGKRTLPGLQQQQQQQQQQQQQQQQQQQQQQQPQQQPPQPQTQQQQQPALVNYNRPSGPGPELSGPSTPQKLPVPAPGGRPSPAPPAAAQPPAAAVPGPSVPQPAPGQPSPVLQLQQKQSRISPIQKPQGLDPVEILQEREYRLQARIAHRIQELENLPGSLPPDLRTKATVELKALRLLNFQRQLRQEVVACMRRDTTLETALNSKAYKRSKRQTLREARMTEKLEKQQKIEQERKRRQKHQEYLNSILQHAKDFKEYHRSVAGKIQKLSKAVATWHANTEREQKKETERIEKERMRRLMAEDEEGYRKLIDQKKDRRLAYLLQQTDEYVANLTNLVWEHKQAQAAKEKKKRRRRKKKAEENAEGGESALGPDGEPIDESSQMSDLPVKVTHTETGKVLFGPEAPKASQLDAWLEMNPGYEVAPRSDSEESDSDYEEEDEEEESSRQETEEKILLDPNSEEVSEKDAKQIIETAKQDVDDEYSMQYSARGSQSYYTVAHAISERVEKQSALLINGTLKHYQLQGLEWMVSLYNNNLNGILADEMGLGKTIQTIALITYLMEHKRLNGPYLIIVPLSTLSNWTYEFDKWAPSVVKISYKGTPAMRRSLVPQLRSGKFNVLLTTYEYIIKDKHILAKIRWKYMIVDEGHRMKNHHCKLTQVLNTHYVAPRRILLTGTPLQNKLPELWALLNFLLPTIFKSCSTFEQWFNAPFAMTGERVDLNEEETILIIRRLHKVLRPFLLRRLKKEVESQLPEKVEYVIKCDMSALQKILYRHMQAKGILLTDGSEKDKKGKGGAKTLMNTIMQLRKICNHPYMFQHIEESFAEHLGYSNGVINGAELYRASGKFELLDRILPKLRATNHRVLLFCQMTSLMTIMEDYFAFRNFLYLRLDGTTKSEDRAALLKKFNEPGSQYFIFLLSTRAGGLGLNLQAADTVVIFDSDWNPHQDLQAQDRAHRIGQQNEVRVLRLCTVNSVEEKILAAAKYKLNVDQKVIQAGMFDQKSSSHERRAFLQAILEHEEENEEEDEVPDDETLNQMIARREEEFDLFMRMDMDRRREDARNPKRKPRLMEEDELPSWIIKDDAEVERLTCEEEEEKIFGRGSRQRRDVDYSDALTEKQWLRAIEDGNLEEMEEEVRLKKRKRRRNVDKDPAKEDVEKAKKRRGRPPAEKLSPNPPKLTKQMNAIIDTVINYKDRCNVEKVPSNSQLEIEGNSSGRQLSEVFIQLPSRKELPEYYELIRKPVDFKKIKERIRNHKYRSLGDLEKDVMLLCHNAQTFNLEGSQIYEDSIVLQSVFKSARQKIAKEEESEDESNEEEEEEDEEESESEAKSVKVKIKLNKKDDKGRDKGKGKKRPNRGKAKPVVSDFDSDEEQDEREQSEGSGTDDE
T1 sequence (P51532 whole entry, the tested form may be a part): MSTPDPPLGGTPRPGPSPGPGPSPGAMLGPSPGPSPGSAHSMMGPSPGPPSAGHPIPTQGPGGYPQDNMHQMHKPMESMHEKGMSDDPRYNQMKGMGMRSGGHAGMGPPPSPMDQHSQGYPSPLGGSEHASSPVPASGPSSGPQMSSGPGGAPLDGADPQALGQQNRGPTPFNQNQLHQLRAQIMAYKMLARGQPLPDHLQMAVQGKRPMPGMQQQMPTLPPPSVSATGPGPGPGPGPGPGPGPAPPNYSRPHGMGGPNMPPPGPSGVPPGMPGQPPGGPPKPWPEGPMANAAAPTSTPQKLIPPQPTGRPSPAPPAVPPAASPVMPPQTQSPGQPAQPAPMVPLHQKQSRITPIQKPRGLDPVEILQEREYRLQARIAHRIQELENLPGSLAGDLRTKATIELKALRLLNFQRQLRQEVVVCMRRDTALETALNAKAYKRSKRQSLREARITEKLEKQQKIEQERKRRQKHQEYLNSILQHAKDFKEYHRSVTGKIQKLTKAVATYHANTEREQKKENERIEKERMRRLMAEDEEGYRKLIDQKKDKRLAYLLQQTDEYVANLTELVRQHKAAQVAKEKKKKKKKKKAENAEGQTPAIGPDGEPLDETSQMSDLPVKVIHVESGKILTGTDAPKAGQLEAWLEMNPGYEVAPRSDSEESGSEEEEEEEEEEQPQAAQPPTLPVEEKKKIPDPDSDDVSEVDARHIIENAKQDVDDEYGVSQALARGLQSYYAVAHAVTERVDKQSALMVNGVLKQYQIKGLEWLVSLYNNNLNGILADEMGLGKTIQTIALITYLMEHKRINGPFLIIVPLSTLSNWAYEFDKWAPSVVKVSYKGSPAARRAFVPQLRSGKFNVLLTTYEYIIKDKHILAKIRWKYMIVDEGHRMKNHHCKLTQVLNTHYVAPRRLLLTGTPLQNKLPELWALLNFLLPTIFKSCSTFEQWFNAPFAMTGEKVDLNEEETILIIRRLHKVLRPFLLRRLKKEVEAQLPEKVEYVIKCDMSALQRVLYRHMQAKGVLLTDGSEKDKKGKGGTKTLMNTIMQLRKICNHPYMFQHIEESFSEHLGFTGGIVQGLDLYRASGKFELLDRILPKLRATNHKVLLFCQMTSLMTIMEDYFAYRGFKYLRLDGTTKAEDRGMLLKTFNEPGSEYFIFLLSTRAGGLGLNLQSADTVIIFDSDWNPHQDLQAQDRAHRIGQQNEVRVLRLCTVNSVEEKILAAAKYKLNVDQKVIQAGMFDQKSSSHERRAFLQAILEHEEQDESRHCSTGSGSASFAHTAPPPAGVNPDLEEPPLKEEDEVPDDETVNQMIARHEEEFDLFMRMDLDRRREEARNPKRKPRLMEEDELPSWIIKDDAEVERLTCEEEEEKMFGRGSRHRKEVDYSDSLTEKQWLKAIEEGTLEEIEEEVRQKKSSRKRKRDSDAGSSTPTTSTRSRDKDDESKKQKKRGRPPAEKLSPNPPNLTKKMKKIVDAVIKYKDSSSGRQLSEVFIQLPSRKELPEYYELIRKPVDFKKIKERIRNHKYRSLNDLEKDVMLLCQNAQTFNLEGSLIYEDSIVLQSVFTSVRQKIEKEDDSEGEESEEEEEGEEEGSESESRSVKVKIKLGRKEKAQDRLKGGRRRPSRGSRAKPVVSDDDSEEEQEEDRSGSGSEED

DC50 [1] [nM] | Dmax [1] [%] | DC50 [2] [nM] | SMILES | BRM HiBit Degradation Maximum (%) [2]
> 10 | > 75 | < 10 | Cc1ncsc1-c1ccc([C@H](C)NC(=O)[C@@H]2C[C@@H](O)CN2C(=O)[C@@H](c2cc(N3CCN(c4ccc5nnc(-c6ccccc6O)cc5c4)CC3)no2)C(C)C)cc1 [Compound 57, (2S,4R)-4-hydroxy-1-((R)-2-(3-(4-(3-(2-hydroxyphenyl)cinnolin-6-yl)piperazin-1-yl)isoxazol-5-yl)-3-methylbutanoyl)-N-((S)-1-(4-(4-methylthiazol-5-yl)phenyl)ethyl)pyrrolidine-2-carboxamide] | A (“A” indicates maximum degradation ≥75%)
 | < 50 | < 10 | Cc1ncsc1-c1ccc([C@H](C)NC(=O)[C@@H]2C[C@@H](O)CN2C(=O)[C@@H](c2cc(N3CC[C@@H](c4ccc5cc(-c6ccccc6O)nnc5c4)C3)no2)C(C)C)cc1 [Compound 58, (2S,4R)-4-hydroxy-1-((R)-2-(3-((S)-3-(3-(2-hydroxyphenyl)cinnolin-7-yl)pyrrolidin-1-yl)isoxazol-5-yl)-3-methylbutanoyl)-N-((S)-1-(4-(4-methylthiazol-5-yl)phenyl)ethyl)pyrrolidine-2-carboxamide] | A (“A” indicates maximum degradation ≥75%)
 | < 50 | < 10 | Cc1ncsc1-c1ccc([C@H](C)NC(=O)[C@@H]2C[C@@H](O)CN2C(=O)[C@@H](c2cc(N3C[C@@H]4[C@H](C3)[C@H]4c3ccc4cc(-c5ccccc5O)nnc4c3)no2)C(C)C)cc1 [Compound 59, (2S,4R)-4-hydroxy-1-((R)-2-(3-((1R,5S,6S)-6-(3-(2-hydroxyphenyl)cinnolin-7-yl)-3-azabicyclo[3.1.0]hexan-3-yl)isoxazol-5-yl)-3-methylbutanoyl)-N-((S)-1-(4-(4-methylthiazol-5-yl)phenyl)ethyl)pyrrolidine-2-carboxamide] | A (“A” indicates maximum degradation ≥75%)
< 10 | > 75 | < 10 | Cc1ncsc1-c1ccc([C@H](C)NC(=O)[C@@H]2C[C@@H](O)CN2C(=O)[C@@H](c2cc(N3CC[C@H](c4ccc5cc(-c6ccccc6O)nnc5c4)C3)no2)C(C)C)cc1 [Compound 60, (2S,4R)-4-hydroxy-1-((R)-2-(3-((R)-3-(3-(2-hydroxyphenyl)cinnolin-7-yl)pyrrolidin-1-yl)isoxazol-5-yl)-3-methylbutanoyl)-N-((S)-1-(4-(4-methylthiazol-5-yl)phenyl)ethyl)pyrrolidine-2-carboxamide] | A (“A” indicates maximum degradation ≥75%)
 | < 50 | > 10 | Cc1ncsc1-c1ccc([C@H](C)NC(=O)[C@@H]2C[C@@H](O)CN2C(=O)[C@@H](c2cc(N3CCC(c4ccc5nnc(-c6ccccc6O)cc5c4)CC3)no2)C(C)C)cc1 [Compound 61, (2S,4R)-4-hydroxy-1-((R)-2-(3-(4-(3-(2-hydroxyphenyl)cinnolin-6-yl)piperidin-1-yl)isoxazol-5-yl)-3-methylbutanoyl)-N-((S)-1-(4-(4-methylthiazol-5-yl)phenyl)ethyl)pyrrolidine-2-carboxamide] | A (“A” indicates maximum degradation ≥75%)
> 10 | > 75 | < 10 | Cc1ncsc1-c1ccc([C@H](C)NC(=O)[C@@H]2C[C@@H](O)CN2C(=O)[C@@H](c2cc(N3CC4(CCC(c5ccc6nnc(-c7ccccc7O)cc6c5)CC4)C3)no2)C(C)C)cc1 [Compound 62, (2S,4R)-4-hydroxy-1-((R)-2-(3-(7-(3-(2-hydroxyphenyl)cinnolin-6-yl)-2-azaspiro[3.5]nonan-2-yl)isoxazol-5-yl)-3-methylbutanoyl)-N-((S)-1-(4-(4-methylthiazol-5-yl)phenyl)ethyl)pyrrolidine-2-carboxamide] | A (“A” indicates maximum degradation ≥75%)
